From patent US20240043903A1, “BIOSENSOR USING PET SUBSTRATE, FABRICATION METHOD THEREFOR, AND METHOD FOR INSPECTING SENSITIVITY OF MICROORGANISM TO ANTIBIOTIC BY USING SAME” (priority 2020, published 2024)

Test system: E. coli (ATCC25922)
Assay: Susceptibility test of microorganism to antibiotic by real-time capacitance change on interdigitated-electrode PET biosensor
Type: cell-based, Escherichia coli
Conditions: antibiotic 0.5 to 8 μg/mL; for susceptibility of E. coli (ATCC25922) to antibiotic: 10^5 cells/mL; for capacitance change after treatment with antibiotic: E. coli (ATCC25922) 10^5 cells/mL
Protocol: The strain used in the experiment was Escherichia coli (ATCC25922), and a standard strain was purchased from ATCC of the United States and used. For the culture of the strain, the Mueller-Hinton media (MH media), which is a culture medium recommended by the US standard CLSI and European standard EUCAST, was purchased from DIFCO and used according to the recommended preparation method in the product manual. After culturing the strain in the MH media for 24 hours, the strain culture medium was adjusted to McFarland OD 0.5, and then diluted 1/100 with the culture medium (strain concentration: 5×10^5 to 10^6 cfu/mL) and treated on the sensor.
The susceptibility of microorganisms to antibiotics was measured by using the sensors fabricated in Examples 1 and 2.

[1] = sensor of Example 1 (PET substrate-Ag electrode), FIG. 4b
[2] = sensor of Example 2 (PET substrate-Au electrode), FIG. 5c

CC1(C)S[C@@H]2[C@H](NC(=O)[C@H](N)c3ccccc3)C(=O)N2[C@H]1C(=O)O [ampicillin]
susceptibility of E. coli (ATCC25922) to antibiotic [1]: tolerance (resistance) | capacitance change after treatment with antibiotic [1]: significantly increased capacitance change | susceptibility of E. coli (ATCC25922) to antibiotic [2]: resistance | capacitance change after treatment with antibiotic [2]: capacitance change significantly increased
